These results are taken from US11980620B2, “Compounds and methods for treatment of Diamond Blackfan anemia” (THE CHILDREN'S MEDICAL CENTER CORPORATION, priority 2017, dated 2024).

Test [1] deals with CD34-5F or CB progenitors. As to the kind of experiment: Output of mature RBCs at end of stage III of erythroid culture. The format is cell-based, human. The method, then: (§1) (FIG. 12A) Erythroid differentiation of control and DBA CD34-5F cells treated with DMSO vehicle or SMER28 (10 μM) during the initial CD34^+ progenitor phase (day 0-4 of differentiation), or stage I of erythroid culture (day 4-9 of differentiation). Percent of erythroid cells after stage I of differentiation is indicated in top left for each condition, and quantitated in (FIG. 12B). Data are shown as mean f s.e.m. of 4 independent experiments, with 2 control and 4 DBA iPSCs. (FIG. 12C) Same as (FIG. 12A) for CB CD34+ cells transduced with shRPS19 hairpins. GFP^+ RPS19^sh and GFP^− control cells were quantitated separately. […] (FIG. 12D) RBC pellets at the end of stage III initiated with equal numbers of CD34-5F or CB progenitors. SMER28 was added at […]. (FIG. 12E) May-Grunwald-Giemsa stain of erythroid cells from CB CD34^+ at end of stage III. Arrows indicate enucleated RBCs, which are quantitated by flow cytometry. (FIG. 12F) Quantitation of the enucleation efficiency (left) of GLYA^+ cells. Data in FIGS. 12E-12F represents 3 independent experiments. For all panels, *p<0.05, **p<0.01.
Erythroblasts proliferate rapidly to give rise to terminally differentiated RBCs. […]

The subject of test [2] is LC3. As to the kind of experiment: Autophagic marker LC3 levels in liver of treated mice. Format: in vivo, mouse. From the text:
FIGS. 11A-11C show effect of SMER28 on CD34+ progenitors. (FIG. 11A) Protein levels of LC3-I and LC3-II in control and SMER28 treated mice. GADPH is used as a loading control. […] (FIG. 11C) Atg5 morpholino treatment of rps29^+/− zebrafish.
In following evaluation, the effects of administration of SMER28 to mice with irradiation-induced anemia, a model that enables dose-finding and initial testing of safety and bioactivity. […] To assess bioactivity, we measured the levels of autophagic marker LC3 in treated animals. […] (FIG. 10C). We tested the effect of this compound on human cells by treating NSG mice transplanted with human CD34-5F and CB cells. SMER28 increased the output of GlyA^+ RBCs from DBA CD34-5F cells (FIG. 10D).

Test [3] concerns DBA CD34-5F cells. As to the kind of experiment: Erythroid differentiation (CD71+GlyA+) of CD34-5F cells from DBA iPSCs. The format is cell-based, human. The method, then: (FIG. 8A) The distribution of 1440 compounds by Z-score in a proliferation-based screen of the Sigma LOPAC chemical library. DBA CD34-5F cells were plated in erythroid-promoting conditions in 384-well format. Erythroid proliferation was measured in the presence of 5 μM of each compound, and converted into Z-scores. The screen was carried out with 3 RPS19 DBA and 2 normal iPSC lines. (FIG. 88) Dose-dependent effect of SMER28 (in μM) on erythroid differentiation, shown as the absolute number of erythroid cells in each drug-treated condition normalized to vehicle (DMSO) control. Erythroid cells were analyzed on day 9 of differentiation using markers CD71 and GlyA. Dose curve was performed with DBA (n=5) and control (n=3) iPSCs. Non-linear regression curve was plotted to calculate EC50 values. (FIGS. 8C and 8D) Dose-dependent effect of SMER28 (in μM) on erythroid differentiation of CB CD34^+ RPS19^+ cells. (FIG. 8C) Absolute number of erythroid cells (analyzed on day 9) in each drug-treated condition normalized to vehicle (DMSO) control (4 independent experiments). Non-linear regression curve was plotted to calculate EC50 values. (FIG. 8D) Representative flow plots of control (shLUC) and RPS19th cells treated with DMSO or increasing doses of SMER28.
as §1
Erythroid differentiation. Differentiation was performed essentially as described (Lee et al., 2015). CD34 expansion phase (4 days): To initiate differentiation CD34-5F cells were cultured in progenitor media without Dox. Stage I (5 days): Media were changed to: IMDM+1% BSA (Gibco), 20% FBS (Stem Cell Technologies), 1 mM L-glutamine, penicillin/streptomycin, 500 μg/ml h-transferrin (Sigma), 10 μg/ml human insulin (CellSciences), 1 μM β-estradiol, 1 μM Dex, 6U Epo (CellSciences), 100 μg/ml SCF, and 5 μg/ml IL-3. Cells were seeded at a density of <1×10^5 cells/ml in 24-well plates. Stage 11 (4 days). Media were changed to: IMDM+1% BSA, 20% FBS, 1 mM L-glutamine, penicillin/streptomycin, 500 μg/ml h-transferrin, 10 μg/ml human insulin, 6U Epo, and 50 μg/ml SCF. Cells were seeded at a density of <2×10^5 cells/ml in 24-well plates. Stage III (10 days) Media were changed to: IMDM+1% BSA, 20% FBS, 1 mM L-glutamine, penicillin/streptomycin, 500 μg/ml h-transferrin, 10 μg/ml human insulin, and 2U Epo. Cells were seeded at a density of <5×10^5 cells/ml in 24-well plates.
Drug treatments. […]

On to `C=CCNc1ncnc2ccc(Br)cc12` [SMER28, 6-Bromo-N-2-propenyl-4-quinazolinam], for which, in test [1] (treatment of CD34+ progenitors only), the “output of RBCs from erythroblasts” value is “comparable to vehicle controls”. Also, the “output of iPSC- and CB-derived mature RBCs” value in test [1] (treatment of erythroblasts during stages I-III) is “enhanced”. Also, the “LC3-I and LC3-II levels in the liver” value in test [2] is reported as “modestly increased”. Also, the “output of GlyA+ cells” value in test [3] (10 μM, treated only during initial expansion phase (day 0-4), DBA progenitors) is “increased output”. In test [3] (10 μM, treatment during stage I (day 4-9)), the “CD71+GlyA- pre-erythroblasts” value is “expanded”. Moreover, the “number of GlyA+ cells” value in test [3] (10 μM, treatment of erythroblasts during stage I (day 4-9)) is on record as “did not significantly increase”. Moreover, the “effect on number of erythroid cells normalized to vehicle” value in test [3] (DBA iPSCs) amounted to 9.8 fold. The EC50 in test [3] (Homo sapiens, iPSC, 216 h, RPS19+/- and RPL5 DBA iPSCs, day 9, normalized to DMSO, 95% confidence interval 0.63 to 2.37 μM, read-out: EC50, absolute number of CD71+GlyA+ erythroid cells) is 1.5 µM.
